Results on four cell lines are retold here after the supplement of paper PMC10307832.

Holding throughout (assay): relative viability (nuclei count vs DMSO), 5 days (fraction); higher = more cells survive
Compound in the assay “OSI-027 + Dasatinib”: COc1cccc2cc(-c3nc([C@H]4CC[C@H](C(=O)O)CC4)n4ncnc(N)c34)[nH]c12 [OSI-027] + Cc1nc(Nc2ncc(C(=O)Nc3c(C)cccc3Cl)s2)cc(N2CCN(CCO)CC2)n1 [Dasatinib] (partner 0.075 µM)
In a few lines: (§1)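 Lung cancer cell lines in 1536-well plates got either a single drug or a fixed anchor-drug dose together with five library-drug doses (not always all listed) in √10 steps, by pin tool, on the day after seeding. Nuclei were counted after 5 days, and relative viability is the treated-to-vehicle ratio of nuclei counts. Values are medians of duplicate plates.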

Compound in the assay “Alpelisib + Lapatinib”: Cc1nc(NC(=O)N2CCC[C@H]2C(N)=O)sc1-c1ccnc(C(C)(C)C(F)(F)F)c1 [Alpelisib] + CS(=O)(=O)CCNCc1ccc(-c2ccc3ncnc(Nc4ccc(OCc5cccc(F)c5)c(Cl)c4)c3c2)o1 [Lapatinib] (partner 2 µM)
In short, it runs like this: as §1

Compound in the assay “Alpelisib + Crizotinib”: Cc1nc(NC(=O)N2CCC[C@H]2C(N)=O)sc1-c1ccnc(C(C)(C)C(F)(F)F)c1 [Alpelisib] + C[C@@H](Oc1cc(-c2cnn(C3CCNCC3)c2)cnc1N)c1c(Cl)ccc(F)c1Cl [Crizotinib] (partner 1 µM)
In a few lines: as §1

Compound in the assay “Alpelisib + Olaparib”: Cc1nc(NC(=O)N2CCC[C@H]2C(N)=O)sc1-c1ccnc(C(C)(C)C(F)(F)F)c1 [Alpelisib] + O=C(c1cc(Cc2n[nH]c(=O)c3ccccc23)ccc1F)N1CCN(C(=O)C2CC2)CC1 [Olaparib] (partner 8 µM)
In a few lines: as §1

Turning to 201T, the relative viability came out at 0.594 with OSI-027 + Dasatinib (first compound 0.01 µM); 0.567 with OSI-027 + Dasatinib (first compound 0.03162 µM); 0.588 in the assay with OSI-027 + Dasatinib (first compound 0.1 µM); 0.504 in the assay with OSI-027 + Dasatinib (first compound 0.3162 µM); 0.398 with OSI-027 + Dasatinib (first compound 1 µM); 1.02 with Alpelisib + Lapatinib (first compound 0.04 µM). Moreover, the relative viability worked out at 0.988 in the assay with Alpelisib + Lapatinib (first compound 0.1265 µM); 1.02 with Alpelisib + Lapatinib (first compound 0.4 µM); 1.01 in the assay with Alpelisib + Lapatinib (first compound 1.265 µM); 0.945 in the assay with Alpelisib + Lapatinib (first compound 4 µM); 0.985 in the assay with Alpelisib + Crizotinib (first compound 0.04 µM); 1 with Alpelisib + Crizotinib (first compound 0.1265 µM). Also, the relative viability in the assay with Alpelisib + Crizotinib (first compound 0.4 µM) was 1.07; in the assay with Alpelisib + Crizotinib (first compound 1.265 µM) it was 0.98; with Alpelisib + Crizotinib (first compound 4 µM), 0.936; with Alpelisib + Olaparib (first compound 0.04 µM), 0.82; in the assay with Alpelisib + Olaparib (first compound 0.1265 µM) it was 0.81; in the assay with Alpelisib + Olaparib (first compound 0.4 µM), 0.859. The relative viability with Alpelisib + Olaparib (first compound 1.265 µM) is 0.774; in the assay with Alpelisib + Olaparib (first compound 4 µM) it was 0.679.
For the cell line A549, the relative viability with Alpelisib + Lapatinib (first compound 0.04 µM) stood at 0.915; in the assay with Alpelisib + Lapatinib (first compound 0.1265 µM), 0.857; with Alpelisib + Lapatinib (first compound 0.4 µM), 0.866; with Alpelisib + Lapatinib (first compound 1.265 µM), 0.637; with Alpelisib + Lapatinib (first compound 4 µM), 0.53; with Alpelisib + Crizotinib (first compound 0.04 µM), 0.698. Besides, the relative viability turned out to be 0.707 in the assay with Alpelisib + Crizotinib (first compound 0.1265 µM); 0.625 with Alpelisib + Crizotinib (first compound 0.4 µM); 0.389 in the assay with Alpelisib + Crizotinib (first compound 1.265 µM); 0.405 with Alpelisib + Crizotinib (first compound 4 µM); 0.301 in the assay with Alpelisib + Olaparib (first compound 0.04 µM); 0.434 with Alpelisib + Olaparib (first compound 0.4 µM). Further, the relative viability with Alpelisib + Olaparib (first compound 1.265 µM) was 0.3; in the assay with Alpelisib + Olaparib (first compound 4 µM), 0.23.
As to A-427, the relative viability with OSI-027 + Dasatinib (first compound 0.01 µM) stood at 0.679; in the assay with OSI-027 + Dasatinib (first compound 0.03162 µM), 0.663; in the assay with OSI-027 + Dasatinib (first compound 0.1 µM) it was 0.573; in the assay with OSI-027 + Dasatinib (first compound 0.3162 µM), 0.391; with OSI-027 + Dasatinib (first compound 1 µM), 0.3; with Alpelisib + Lapatinib (first compound 0.04 µM), 1.03. Besides, the relative viability was 0.914 in the assay with Alpelisib + Lapatinib (first compound 0.1265 µM); 0.967 with Alpelisib + Lapatinib (first compound 0.4 µM); 0.926 in the assay with Alpelisib + Lapatinib (first compound 1.265 µM); 1.04 in the assay with Alpelisib + Lapatinib (first compound 4 µM); 0.775 in the assay with Alpelisib + Crizotinib (first compound 0.04 µM); 0.835 in the assay with Alpelisib + Crizotinib (first compound 0.1265 µM). Besides, the relative viability is 1.11 with Alpelisib + Crizotinib (first compound 0.4 µM); 0.773 in the assay with Alpelisib + Crizotinib (first compound 1.265 µM); 0.653 with Alpelisib + Crizotinib (first compound 4 µM); 0.721 with Alpelisib + Olaparib (first compound 0.04 µM); 0.724 with Alpelisib + Olaparib (first compound 0.1265 µM); 0.762 with Alpelisib + Olaparib (first compound 0.4 µM). The relative viability was 0.609 with Alpelisib + Olaparib (first compound 1.265 µM) and 0.613 in the assay with Alpelisib + Olaparib (first compound 4 µM).
Regarding ABC-1, the relative viability in the assay with OSI-027 + Dasatinib (first compound 0.01 µM) amounted to 0.656; with OSI-027 + Dasatinib (first compound 0.03162 µM), 0.516; in the assay with OSI-027 + Dasatinib (first compound 0.1 µM) it was 0.384; in the assay with OSI-027 + Dasatinib (first compound 0.3162 µM) it was 0.486; in the assay with OSI-027 + Dasatinib (first compound 1 µM), 0.216; in the assay with Alpelisib + Lapatinib (first compound 0.04 µM), 0.943. Further, the relative viability with Alpelisib + Lapatinib (first compound 0.1265 µM) turned out to be 0.988; in the assay with Alpelisib + Lapatinib (first compound 0.4 µM) it was 1.17; with Alpelisib + Lapatinib (first compound 1.265 µM), 0.706; with Alpelisib + Lapatinib (first compound 4 µM), 0.717; in the assay with Alpelisib + Crizotinib (first compound 0.04 µM), 1.19; in the assay with Alpelisib + Crizotinib (first compound 0.1265 µM), 1.28. Further, the relative viability stood at 1.04 with Alpelisib + Crizotinib (first compound 0.4 µM); 0.886 with Alpelisib + Crizotinib (first compound 1.265 µM); 0.713 with Alpelisib + Crizotinib (first compound 4 µM); 0.775 with Alpelisib + Olaparib (first compound 0.04 µM); 0.596 in the assay with Alpelisib + Olaparib (first compound 0.1265 µM); 1.01 with Alpelisib + Olaparib (first compound 0.4 µM). Also, the relative viability with Alpelisib + Olaparib (first compound 1.265 µM) amounted to 0.885; with Alpelisib + Olaparib (first compound 4 µM) it was 0.804.
